Results taken from patent US5298523A, “Method for treating transplant patients using mycalamide compounds” (priority 1992, dated 1994).
In brackets after ≈: the same amount, converted by molar mass.

Legend:
Format in all cases: cell-based
[1] = system: two-way murine mixed lymphocyte response (C57BL/6J and BALB/c splenocytes); assay: Two-way murine mixed lymphocyte reaction (MLR), 3H-thymidine incorporation
Procedure: (§1) Preparation of splenocyte cell suspensions. […] The resulting supernatant was then transferred to another sterile centrifuge tube, and the cell concentration adjusted to 2×10^6 cells/ml dilution with TCM.
(§2) Two way mixed lymphocyte reaction (MLR). The immunosuppressive properties of mycalamide A were evaluated using the two-way MLR, utilizing murine splenocytes and human PBL. For the murine MLR, splenocytes from C57Bl/6J and BALB/c mice were prepared as described above, and a volume of […] of each cell suspension was added together to test and control wells of microtiter plates. Wells containing 0.20 ml of each cell suspension alone served as controls.
(§3) Dilutions of the drug to be tested were prepared in absolute EtOH and further diluted to the appropriate concentration in TCM and added directly to the wells containing splenocyte combinations. Additional solvent (EtOH) control wells were also prepared by adding the equivalent percentage of EtOH to each culture well. Plates were incubated at 37° C. in a 5% CO2 humidified atmosphere for 88 hours. Following the incubation, 1.0 μCi of ^3 H-thymidine was added to each well, and the plates were returned to the incubator for 5 hours. The contents of each well were harvested onto glass-fiber filter strips, and the incorporation of ^3 H-thymidine was determined by a liquid scintillation counter. Similar conditions were utilized for MLR cultures using human peripheral blood lymphocytes prepared from unrelated donors as described above, with the exception that the initial incubation and subsequent ^3 H-thymidine pulse times were different (114 hours for initial incubation followed by a 6-hour incubation with ^3 H-thymidine). Plates were harvested in a similar manner, and ^3 H-thymidine incorporation determined as described above.

[2] = Lymphocyte viability assay (LCV, MTT) on human PBL; conditions: for viability: human MLR, MTT
Procedure: (§4) Preparation of human peripheral blood leukocyte (PBL) suspensions. Human peripheral blood suspensions were prepared from Leukotrap blood filters as follows: Leukotrap filters containing processed leukocytes from random, unrelated blood donors were obtained from the Indian River Blood Bank (Vero Beach, Fla.). Buffy-coat blood cell suspensions were recovered by reverse-flow phosphate-buffered saline purging and centrifugation for 15 minutes at 475× g. Buffy coats were removed, and 5 ml of the suspension was layered onto 5 ml of Histopaque gradient material. The Histopaque gradients were centrifuged at 475× g for 30 minutes. Lymphocytes were removed from the Histopaque-medium interface, and washed twice with 10 ml of PBS (Dulbecco's phosphate-buffered saline without CaCl2 and MgCl2.6H2 O). The final cell pellet was resuspended in TCM, and the cell concentration adjusted to 2×10^6 cells/ml.
(§5) Determination of mycalamide A toxicity. The toxicity of mycalamide A on murine splenocytes and human PBL was determined using a colorimetric assay, based on the ability of viable cells to convert the colorless tetrazolium salt, 3-(4,5-dimethylthiazol-2yl)-2,5-diphenyl tetrazolium bromide (MTT) to a colored formazan product and trypan blue exclusion. For the colorimetric assay, a volume of 0.075 ml of an MTT solution (550 μg/ml of MTT in TCM) was added to test and control wells containing one of the populations of splenocytes or test wells and incubated for 5-6 hours following the initial incubation period. Microtiter plates were centrifuged at 100× g, supernatants carefully removed, and a volume of 0.20 ml of isopropyl alcohol was added to each well to dissolve the formazan crystals. The absorbance at 570 nm was determined for each well using an ELISA plate reader. […] As an additional parameter of toxicity, wells containing cultured lymphocytes with various dilutions of mycalamide A were examined with trypan blue, and the percentage of dye-excluding (viable) cells was determined.

murine splenocytes = assay: Lymphocyte viability assay (LCV, MTT) on murine splenocytes; conditions: mitogen study, in words
Procedure: as §1, §5

[3] = as above; conditions: mouse, splenocytes
Procedure: as §1, §5

[4] = system: two-way human mixed lymphocyte response (human PBL); assay: Two-way human mixed lymphocyte reaction (MLR), 3H-thymidine incorporation
Procedure: as §4, §2, §3

`C=C1CC(OC)(C(O)C(=O)NC2OCOC3C2OC(CC(O)CO)C(C)(C)C3OC)OC(C)C1C` (centres unmarked) [Mycalamide A, mycalamide A] gave an activity at 5 µg/mL ([1]; Mus musculus, Splenocyte, 5.0 × 10^0 μg/ml, read-out: % of Positive Control MLR) of 0%, an activity at 50 µg/mL ([1]; Mus musculus, Splenocyte, 5.0 × 10^1 μg/ml, read-out: % of Positive Control MLR) of 0% and an activity at 500 µg/mL ([1]; Mus musculus, Splenocyte, 5.0 × 10^2 μg/ml, read-out: % of Positive Control MLR) of 0%. It also gave an activity at 0.5 µg/mL ([1]; Mus musculus, Splenocyte, 5.0 × 10^-1 μg/ml, read-out: % of Positive Control MLR) of 0%, an activity at 0.05 µg/mL ([1]; Mus musculus, Splenocyte, 5.0 × 10^-2 μg/ml, read-out: % of Positive Control MLR) of 0% and an activity at 0.005 µg/mL ([1]; Mus musculus, Splenocyte, 5.0 × 10^-3 μg/ml, read-out: % of Positive Control MLR) of 0%. For the same molecule, the activity at 0.0005 µg/mL ([1]; Mus musculus, Splenocyte, 5.0 × 10^-4 μg/ml, read-out: % of Positive Control MLR) was 0%, the activity at 50 pg/mL ([1]; Mus musculus, Splenocyte, 5.0 × 10^-5 μg/ml, read-out: % of Positive Control MLR) was 0% and the activity at 5 pg/mL ([1]; Mus musculus, Splenocyte, 5.0 × 10^-6 μg/ml, read-out: % of Positive Control MLR) was 0%. It also gave an activity at 500 fg/mL ([1]; Mus musculus, Splenocyte, 5.0 × 10^-7 μg/ml, read-out: % of Positive Control MLR) of 0%, an activity at 50 fg/mL ([1]; Mus musculus, Splenocyte, 5.0 × 10^-8 μg/ml, read-out: % of Positive Control MLR) of 0% and an activity at 5 fg/mL ([1]; Mus musculus, Splenocyte, 5.0 × 10^-9 μg/ml, read-out: % of Positive Control MLR) of 0%. It also gave an activity at 5e-10 µg/mL ([1]; Mus musculus, Splenocyte, 5.0 × 10^-10 μg/ml, read-out: % of Positive Control MLR) of 0%, an activity at 5e-11 µg/mL ([1]; Mus musculus, Splenocyte, 5.0 × 10^-11 μg/ml, read-out: % of Positive Control MLR) of 0% and an activity at 5e-12 µg/mL ([1]; Mus musculus, Splenocyte, 5.0 × 10^-12 μg/ml, read-out: % of Positive Control MLR) of 0%. It also gave an activity at 5e-13 µg/mL ([1]; Mus musculus, Splenocyte, 5.0 × 10^-13 μg/ml, read-out: % of Positive Control MLR) of 0%, an activity at 5e-14 µg/mL ([1]; Mus musculus, Splenocyte, 5.0 × 10^-14 μg/ml, read-out: % of Positive Control MLR) of 0% and an activity at 5e-15 µg/mL ([1]; Mus musculus, Splenocyte, 5.0 × 10^-15 μg/ml, read-out: % of Positive Control MLR) of 0%. It also gave an activity at 5e-16 µg/mL ([1]; Mus musculus, Splenocyte, 5.0 × 10^-16 μg/ml, read-out: % of Positive Control MLR) of 0%, an activity at 5e-17 µg/mL ([1]; Mus musculus, Splenocyte, 5.0 × 10^-17 μg/ml, read-out: % of Positive Control MLR) of 85% and an activity at 5e-18 µg/mL ([1]; Mus musculus, Splenocyte, 5.0 × 10^-18 μg/ml, read-out: % of Positive Control MLR) of 82%. For the same molecule, the activity at 5e-19 µg/mL ([1]; Mus musculus, Splenocyte, 5.0 × 10^-19 μg/ml, read-out: % of Positive Control MLR) was 128%, the “range of concentrations that suppressed the MLR” value ([1]; murine) was 5×10^2 to 5×10^-16 μg/ml and the viability ([2]; 5.0 × 10^-1 μg/ml) was 42%. For the same molecule, the viability ([2]; 5.0 × 10^-2 μg/ml) was 52%, the viability ([2]; 5.0 × 10^-3 μg/ml) was 46% and the viability ([2]; 5.0 × 10^-4 μg/ml) was 128%. For the same molecule, the viability ([2]; 5.0 × 10^-5 μg/ml) was 111%, the viability ([2]; 5.0 × 10^-6 μg/ml) was 114% and the viability ([2]; 5.0 × 10^-7 μg/ml) was 116%. For the same molecule, the CC50 ([2]; read-out: TC50 (LCV)) was 0.083 µg/mL (≈ 0.165 µM), the “toxicity by LCV assay” value (murine splenocytes; 5×10^-5 μg/ml) was “no toxicity” and the “toxicity to the cells” value (murine splenocytes; greater than 5×10^-5 μg/ml) was “toxic to the cells”. For the same molecule, the viability ([3]; MLR, 5.0 × 10^0 μg/ml, MTT, read-out: % Viability (LCV)) was 0%, the viability ([3]; MLR, 5.0 × 10^1 μg/ml, MTT, read-out: % Viability (LCV)) was 0% and the viability ([3]; MLR, 5.0 × 10^2 μg/ml, MTT, read-out: % Viability (LCV)) was 0%. It also gave a viability ([3]; MLR, 5.0 × 10^-1 μg/ml, MTT, read-out: % Viability (LCV)) of 55%, a viability ([3]; MLR, 5.0 × 10^-2 μg/ml, MTT, read-out: % Viability (LCV)) of 79% and a viability ([3]; MLR, 5.0 × 10^-3 μg/ml, MTT, read-out: % Viability (LCV)) of 66%. For the same molecule, the viability ([3]; MLR, 5.0 × 10^-4 μg/ml, MTT, read-out: % Viability (LCV)) was 62%, the viability ([3]; MLR, 5.0 × 10^-5 μg/ml, MTT, read-out: % Viability (LCV)) was 63% and the viability ([3]; MLR, 5.0 × 10^-6 μg/ml, MTT, read-out: % Viability (LCV)) was 83%. For the same molecule, the viability ([3]; MLR, 5.0 × 10^-7 μg/ml, MTT, read-out: % Viability (LCV)) was 71%, the viability ([3]; MLR, 5.0 × 10^-8 μg/ml, MTT, read-out: % Viability (LCV)) was 100% and the viability ([3]; MLR, 5.0 × 10^-9 μg/ml, MTT, read-out: % Viability (LCV)) was greater than 99%. For the same molecule, the viability ([3]; MLR, 5.0 × 10^-10 μg/ml, MTT, read-out: % Viability (LCV)) was greater than 99%, the viability ([3]; MLR, 5.0 × 10^-11 μg/ml, MTT, read-out: % Viability (LCV)) was greater than 99% and the viability ([3]; MLR, 5.0 × 10^-12 μg/ml, MTT, read-out: % Viability (LCV)) was greater than 99%. It also gave a viability ([3]; MLR, 5.0 × 10^-13 μg/ml, MTT, read-out: % Viability (LCV)) greater than 99%, a viability ([3]; MLR, 5.0 × 10^-14 μg/ml, MTT, read-out: % Viability (LCV)) greater than 99% and a viability ([3]; MLR, 5.0 × 10^-15 μg/ml, MTT, read-out: % Viability (LCV)) greater than 99%. For the same molecule, the viability ([3]; MLR, 5.0 × 10^-16 μg/ml, MTT, read-out: % Viability (LCV)) was greater than 99%, the viability ([3]; MLR, 5.0 × 10^-17 μg/ml, MTT, read-out: % Viability (LCV)) was greater than 99% and the viability ([3]; MLR, 5.0 × 10^-18 μg/ml, MTT, read-out: % Viability (LCV)) was greater than 99%. It also gave a viability ([3]; MLR, 5.0 × 10^-19 μg/ml, MTT, read-out: % Viability (LCV)) greater than 99%, a viability ([3]; mitogen study, 5.0 × 10^0 μg/ml, read-out: LCV, % viability) of 1% and a viability ([3]; mitogen study, 5.0 × 10^1 μg/ml, read-out: LCV, % viability) of 2%. It also gave a viability ([3]; mitogen study, 5.0 × 10^2 μg/ml, read-out: LCV, % viability) of 3%, a viability ([3]; mitogen study, 5.0 × 10^-1 μg/ml, read-out: LCV, % viability) of 4% and a viability ([3]; mitogen study, 5.0 × 10^-2 μg/ml, read-out: LCV, % viability) of 3%. It also gave a viability ([3]; mitogen study, 5.0 × 10^-3 μg/ml, read-out: LCV, % viability) of 3%, a viability ([3]; mitogen study, 5.0 × 10^-4 μg/ml, read-out: LCV, % viability) of 4% and a viability ([3]; mitogen study, 5.0 × 10^-5 μg/ml, read-out: LCV, % viability) of 180%. For the same molecule, the activity at 0.5 µg/mL ([4]; 120 h, human, 5.0 × 10^-1 μg/ml, read-out: % of Positive Control MLR) was 0%, the activity at 0.05 µg/mL ([4]; 120 h, human, 5.0 × 10^-2 μg/ml, read-out: % of Positive Control MLR) was 0% and the activity at 0.005 µg/mL ([4]; 120 h, human, 5.0 × 10^-3 μg/ml, read-out: % of Positive Control MLR) was 0%. It also gave an activity at 0.0005 µg/mL ([4]; 120 h, human, 5.0 × 10^-4 μg/ml, read-out: % of Positive Control MLR) of 40%, an activity at 50 pg/mL ([4]; 120 h, human, 5.0 × 10^-5 μg/ml, read-out: % of Positive Control MLR) of 43% and an activity at 5 pg/mL ([4]; 120 h, human, 5.0 × 10^-6 μg/ml, read-out: % of Positive Control MLR) of 71%. For the same molecule, the activity at 500 fg/mL ([4]; 120 h, human, 5.0 × 10^-7 μg/ml, read-out: % of Positive Control MLR) was 81% and the IC50 ([4]; Homo sapiens) was 0.017 ng/mL.
